{"source": "patent US6387389B1", "about": "(priority 1996, dated 2002)", "key": {"[1]": {"test_system": "food-maintained and cocaine-maintained responding in rhesus monkeys", "conditions": "rhesus monkey, in vivo"}, "[2]": {"test_system": "dopamine (DA) and serotonin (5-HT) in nucleus accumbens dialysate", "test": "In vivo microdialysis with methamphetamine challenge", "design": "species or system male Sprague-Dawley rats", "conditions": "0.7 ml/kg im"}, "[3]": {"test_system": "food-maintained and cocaine-maintained responding in rhesus monkeys", "conditions": "comparison value for the shorter-acting drug; cited from earlier work"}, "[4]": {"test_system": "dopamine transporter versus serotonin and norepinephrine transporters", "conditions": "Rothman et al. (1993); cited from earlier work"}, "[5]": {"biological_target": "T1, reuptake of tritiated serotonin ([3H]5HT), rat whole brain minus cerebellum synaptosomes (Rattus norvegicus, UniProt P31652)", "T1 construct": "homogenization of rat caudate (DA) or whole brain minus cerebellum (5HT); from tissue; host or cells: rat whole brain minus cerebellum, synaptosomes", "T1 sequence (P31652 whole entry)": "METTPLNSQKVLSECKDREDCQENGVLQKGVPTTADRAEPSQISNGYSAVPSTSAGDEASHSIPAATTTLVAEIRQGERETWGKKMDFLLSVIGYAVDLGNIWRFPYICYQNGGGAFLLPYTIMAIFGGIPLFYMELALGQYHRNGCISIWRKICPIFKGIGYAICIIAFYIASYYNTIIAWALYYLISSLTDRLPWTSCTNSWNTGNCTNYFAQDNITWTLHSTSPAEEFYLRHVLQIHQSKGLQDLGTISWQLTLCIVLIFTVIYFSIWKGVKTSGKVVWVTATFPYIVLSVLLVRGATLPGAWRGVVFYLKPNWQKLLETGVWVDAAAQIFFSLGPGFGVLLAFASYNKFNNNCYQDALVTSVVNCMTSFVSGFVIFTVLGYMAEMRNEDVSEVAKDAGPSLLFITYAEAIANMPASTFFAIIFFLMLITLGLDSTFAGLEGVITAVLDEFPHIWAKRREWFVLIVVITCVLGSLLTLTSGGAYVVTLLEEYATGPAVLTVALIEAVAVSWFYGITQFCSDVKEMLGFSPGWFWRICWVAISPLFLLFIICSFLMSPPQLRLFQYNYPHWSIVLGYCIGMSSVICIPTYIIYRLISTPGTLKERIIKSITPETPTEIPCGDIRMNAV", "type": "biochemical"}, "[6]": {"conditions": "methamphetamine 1 mg/kg iv four days later, FIG. 4 (percent of baseline)"}}}
{"smiles": "CCCCCCCCCC(=O)OC(CCN1CCN(CCOC(c2ccc(F)cc2)c2ccc(F)cc2)CC1)c1ccccc1", "note": "(racemic) [compound 5*, (±)1-[2-Bis-(p-fluorophenyl)methoxy]ethyl]-4-(3-hyroxy-3-phenylpropyl)piperazine decanoate ester]", "values": [{"measurement": "duration of sustained and selective effect on cocaine-maintained responding", "setting": "[1]", "value": "almost thirty days"}, {"measurement": "increase of basal levels of dopamine (DA)", "setting": "[2]; four days after injection, FIG. 3", "value": "two-fold"}, {"measurement": "ability of methamphetamine to increase dopamine levels", "setting": "[2]; methamphetamine 1 mg/kg iv four days later, FIG. 3 (picogram/fraction)", "value": "essentially eliminated"}, {"measurement": "ability of methamphetamine to increase dopamine", "setting": "[2]; [6]", "value": "blunted"}, {"measurement": "ability of methamphetamine to increase serotonin (5-HT)", "setting": "[2]; [6]", "value": "blunted"}]}
{"smiles": "Fc1ccc(C(OCCN2CCN(CCCc3ccccc3)CC2)c2ccc(F)cc2)cc1", "note": "[GBR 12909, 1-[2-[bis(4-fluorophenyl)methoxy]ethyl]-4-[3-phenylpropyl]piperazine]", "values": [{"measurement": "duration of effect on cocaine-maintained responding", "setting": "[3]", "value": "4 to 6", "unit": "h"}]}
{"smiles": "c1ccc(CCCN2CCCN(CCOC(c3ccccc3)c3ccccc3)CC2)cc1", "note": "[LR1111, 1-[2-(diphenyl-methoxy)-ethyl]-4-(3-phenylpropyl)homopiperazine]", "values": [{"measurement": "selectivity for the dopamine transporter over the serotonin and norepinephrine transporters", "setting": "[4]", "value": "over 4,000 fold"}]}
{"smiles": "NCCc1c[nH]c2ccc(O)cc12", "note": "[[^3H]5HT]", "values": [{"measurement": "Km", "setting": "[5]", "value": "0.0174 ± 0.0008", "unit": "µM"}]}
